Source: article PMC3938571, “Modulation of Basophils' Degranulation and Allergy-Related Enzymes by Monomeric and Dimeric Naphthoquinones” (PLoS ONE, 2014)
“Also recorded” adds a separate entry of the source.

Experiments:
RBL-2H3 cells [1] = assay: IgE/antigen-induced RBL-2H3 basophils' degranulation (β-hexosaminidase release); format: cell-based, rat; details: for Effect on IgE/antigen-induced degranulation (in words): naphthazarin 0.1 µM, plumbagin 1 µM
Method: RBL-2H3 cells were seeded at 3.0×10^5 cells/mL in 24-wells plate (1 mL/well), and assayed after 24h at near-confluent stage (∼90%). Two different degranulation stimuli were used: calcium ionophore A23187 500 ng/mL (1 µM) and an immunologic stimulus (100 ng/mL IgE anti-DNP followed by 100 ng/mL DNP-BSA) that we refer to as IgE/antigen (Fig. 2). […] Thus, the ability of naphthoquinones to reduce β-hexosaminidase release was quantified for both stimuli, whereas effects upon histamine were only quantified with the A23187 stimulus, given the low histamine release and poor signal to noise achieved with IgE/antigen.
When the IgE/antigen was used as stimulus, cells were incubated during 16 h with 100 ng/ml IgE anti-DNP and with individual naphthoquinones diluted in culture medium. After washing twice with Dulbecco's phosphate buffered saline (DPBS), cells were treated for 1 h, at 37°C, with 100 ng/ml DNP-BSA and with individual naphthoquinones diluted in EBSS supplemented with 0.1% BSA (Fig. 2A). After treatments, supernatants were collected in order to quantify released β-hexosaminidase and released histamine, while cell viability assay was performed on adherent cells.
(§1) The release of β-hexosaminidase from stimulated-RBL-2H3 cells was measured as previously described. In a 96-wells plate, 50 µl of substrate solution [p-nitrophenyl N-acetyl-D-glucosamine 1.3 mg/ml in citrate buffer (pH 4.5)] were added to 30 µl of supernatant. The plate was incubated at 37°C, during 1 h.

RBL-2H3 cells [2] = assay: Calcium ionophore A23187-induced RBL-2H3 degranulation (β-hexosaminidase release); format: cell-based, rat; details: for Effect on A23187 (calcium ionophore)-induced degranulation (in words): naphthazarin 0.1 µM, plumbagin 1 µM, diospyrin 10 µM, others at maximal tested concentrations
Method: (§2) RBL-2H3 cells were seeded at 3.0×10^5 cells/mL in 24-wells plate (1 mL/well), and assayed after 24h at near-confluent stage (∼90%). Two different degranulation stimuli were used: calcium ionophore A23187 500 ng/mL (1 µM) and an immunologic stimulus (100 ng/mL IgE anti-DNP followed by 100 ng/mL DNP-BSA) that we refer to as IgE/antigen (Fig. 2). Both stimuli induced degranulation, which was quantified by β-hexosaminidase and histamine release. With IgE/antigen, β-hexosaminidase release (p-nitrophenolate absorbance) increased by 65.4±6.8% above basal (n = 16; P<0.001), whereas histamine increased from the basal value of 0.156±0.151 µM towards 0.521±0.186 µM (n = 10; P<0.05). With A23187, β-hexosaminidase release increased by 187±18.9% above basal (n = 12; P<0.001), whereas histamine increased towards 2.43±0.330 µM (n = 12; P<0.001). Thus, the ability of naphthoquinones to reduce β-hexosaminidase release was quantified for both stimuli, whereas effects upon histamine were only quantified with the A23187 stimulus, given the low histamine release and poor signal to noise achieved with IgE/antigen.
(§3) Before treatment with A23187, cells were incubated with individual naphthoquinones during 15 min, at 37°C. After that, A23187 1 µM was added and cells incubated for 30 min, at 37°C (Fig. 2B). Compounds were freshly diluted prior to cell exposure using EBSS supplemented with 0.1% BSA [21]. β-hexosaminidase and histamine release was quantified in supernatants, whereas the MTT cell viability assay was performed on adherent cells.
as §1, with “h. The reaction was stopped by the addition of 80 µl of NaOH 0.5 M and the reaction product, p-nitrophenolate, was measured spectrophotometrically at 405 nm, in a microplate reader (Multiskan ASCENT Thermo®).” for “h.”

[3] = test system: hyaluronidase from bovine tests (type IV-S; EC 3.2.1.35); assay: Hyaluronidase inhibition, cell-free (Morgan-Elson); format: biochemical; details: for Hyaluronidase inhibition (%): maximal inhibition, mean±SEM
Method: The reaction product, N-acetyl-sugar, was quantified according Morgan-Elson colour reaction with minor modifications. The Morgan-Elson reaction was started by addition of 25 µl disodium tetraborate 0.8 M and subsequent heating in a boiling water bath during 3 min. After cooling, 750 µl p-dimethylaminobenzaldehyde (DMAB) was added and the reaction mixture was incubated at 37°C for 20 min. […] The measurement was made spectrophotometrically, at 560 nm, in a microplate reader (Multiskan ASCENT Thermo®), [24]. Sodium cromoglycate was used as a positive control for inhibition.

soybean lipoxidase = target: T1, soybean lipoxidase (Glycine max, UniProt P08170); assay: Soybean lipoxidase inhibition, cell-free; format: biochemical, Glicine max (L.) Merr.; details: mean±SEM; for IC50: cell-free assay
T1 construct: purchased Sigma-Aldrich (St. Louis, MO, USA) type V-S; host or cells: soybean (plant preparation)
T1 sequence (P08170 1-839): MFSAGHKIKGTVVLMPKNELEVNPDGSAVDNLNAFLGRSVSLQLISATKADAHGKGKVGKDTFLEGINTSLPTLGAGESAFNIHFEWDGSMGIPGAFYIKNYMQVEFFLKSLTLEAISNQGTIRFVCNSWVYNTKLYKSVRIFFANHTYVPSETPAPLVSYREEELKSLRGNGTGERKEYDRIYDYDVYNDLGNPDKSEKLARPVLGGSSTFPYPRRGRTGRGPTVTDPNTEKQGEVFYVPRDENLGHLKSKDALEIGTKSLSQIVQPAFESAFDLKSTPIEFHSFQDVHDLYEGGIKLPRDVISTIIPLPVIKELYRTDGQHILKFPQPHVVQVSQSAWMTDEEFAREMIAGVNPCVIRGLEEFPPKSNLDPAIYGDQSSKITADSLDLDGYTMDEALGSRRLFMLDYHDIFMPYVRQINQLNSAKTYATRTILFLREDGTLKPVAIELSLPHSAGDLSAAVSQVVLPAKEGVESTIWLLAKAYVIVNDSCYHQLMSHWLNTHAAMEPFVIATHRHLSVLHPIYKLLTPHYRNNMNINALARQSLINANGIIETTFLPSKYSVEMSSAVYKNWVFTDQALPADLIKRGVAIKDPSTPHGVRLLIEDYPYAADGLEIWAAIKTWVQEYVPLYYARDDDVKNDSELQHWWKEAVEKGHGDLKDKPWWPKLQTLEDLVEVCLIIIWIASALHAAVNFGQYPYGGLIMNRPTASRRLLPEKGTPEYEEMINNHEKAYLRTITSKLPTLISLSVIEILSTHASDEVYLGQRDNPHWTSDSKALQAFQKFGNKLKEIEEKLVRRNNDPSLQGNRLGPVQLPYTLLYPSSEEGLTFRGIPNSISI
Method: Lipoxidase catalyses the oxidation of linoleic acid to the conjugated diene, 13-hydroperoxy linoleic acid, which was measured spectrophotometrically at 234 nm on a UV/visible spectrophotometer (UNICAM Helios α). The blank was measured in a reaction mixture with 20 µl of individual naphthoquinones solution, 1 ml of phosphate buffer (pH 9) and 20 µl of soybean lipoxidase 500 U. After 5 min pre-incubation at room temperature, the reaction was started by addition of 50 µl of substrate (linoleic acid) at 2 mM in ethanol. The reaction time was 3 min.

[4] = test system: leukotriene C4 production; assay: Leukotriene C4 production in IgE/antigen-stimulated RBL-2H3 cells (EIA); format: cell-based, rat
[5] = test system: prostaglandin H2 (PGH2) synthase; parameters: method as in PMID 2495300; details: via ROS production; read-out: IC50 for inhibition of prostaglandin H2 (PGH2) synthase; cited from earlier work
leukotriene production = test system: leukotriene production; parameters: method as in PMID 20460770; details: by inhibiting 5-lipoxygenase translocation to the nuclear membrane; cited from earlier work
RBL-2H3 cells [6] = assay: Histamine release in A23187-stimulated RBL-2H3 cells; format: cell-based, rat; details: 10 µM; A23187 1 µM stimulus
Method: as §2, with “With A23187, β-hexosaminidase release increased by 187±18.9% above basal (n = 12; P<0.001), whereas histamine increased towards 2.43±0.330 µM (n = 12; P<0.001).” left out
as §3, with “After that, A23187 1 µM was added and cells incubated for 30 min, at 37°C (Fig. 2B).” left out, “cells. […]” for “cells.”

RBL-2H3 cells [7] = format: cell-based; details: rat
Method: Cell viability was assessed by the cellular dehydrogenases' dependent reduction of MTT to formazan, which was quantified by the measurement of optical density at 550 nm using a microplate reader (Multiskan ASCENT Thermo®), as described before.

[8] = test system: peripheral blood mononuclear cells (PBMC); parameters: method as in PMID 21134493; details: 5 µM; phytohemagglutinin-stimulated PBMC; cited from earlier work
[9] = Rattus norvegicus, RBL-2H3, maximal inhibition, mean±SEM, read-out: Degranulation inhibition (%) IgE/antigen (decrease of β-hexosaminidase release)
[10] = Rattus norvegicus, RBL-2H3, maximal inhibition, mean±SEM, read-out: Degranulation inhibition (%) A23187 (decrease of β-hexosaminidase release)

Cc1cc(O)c2c(c1)C(=O)C(c1c(C)cc3c(c1O)C(=O)C1OC1C3=O)=CC2=O (centres unmarked) [Diosquinone, diosquinone]
inhibition at 1 µM (RBL-2H3 cells [1]; [9]): 18.4 ± 8.07%
inhibition at 1 µM (RBL-2H3 cells [2]; [10]): < 15%
Hyaluronidase inhibition (%) ([3]; 100 µM): < 15 (100 µM) %
inhibition at 183.5 µM (soybean lipoxidase; maximal inhibition): 96.5 ± 0.92%
IC50 (soybean lipoxidase): 83.8 ± 9.33 µM
Effect on leukotriene (LT) C4 levels evoked by IgE/antigen (in words) ([4]; 1 µM): unaffected

O=C1C=CC(=O)c2c(O)cccc21 [Juglone, juglone]
inhibition at 10 µM (RBL-2H3 cells [1]; Rattus norvegicus, RBL-2H3, 10 µM, maximal inhibition, mean±SEM, read-out: Degranulation inhibition (%) IgE/antigen (decrease of β-hexosaminidase release)): 39.2 ± 13.3%
inhibition at 10 µM (RBL-2H3 cells [2]; [10]): < 15%
Hyaluronidase inhibition (%) ([3]; 100 µM): < 15 (100 µM) %
inhibition at 183.5 µM (soybean lipoxidase; maximal inhibition): 53.1 ± 13.8%

CC1=CC(=O)c2ccccc2C1=O [Menadione, menadione]
inhibition at 5 µM (RBL-2H3 cells [1]; Rattus norvegicus, RBL-2H3, 5 µM, maximal inhibition, mean±SEM, read-out: Degranulation inhibition (%) IgE/antigen (decrease of β-hexosaminidase release)): < 15%
inhibition at 5 µM (RBL-2H3 cells [2]; Rattus norvegicus, RBL-2H3, 5 µM, maximal inhibition, mean±SEM, read-out: Degranulation inhibition (%) A23187 (decrease of β-hexosaminidase release)): < 15%
Hyaluronidase inhibition (%) ([3]; 100 µM): 23.8±6.06 (100 µM) %
inhibition at 183.5 µM (soybean lipoxidase; maximal inhibition): 83.4 ± 6.8%
IC50 (soybean lipoxidase): 128 ± 9.38 µM
Effect on leukotriene (LT) C4 levels evoked by IgE/antigen (in words) ([4]; 5 nM (lowest concentration tested)): strongly decreased LTC4 levels
Effect on leukotriene (LT) C4 levels evoked by IgE/antigen (in words) ([4]; 5 µM): full inhibition
Effect on leukotriene (LT) C4 levels evoked by IgE/antigen (in words) ([4]; 5 µM, listed as menadione): completely abrogated
IC50 ([4]; Rattus norvegicus, RBL-2H3, IgE/antigen evoked release, read-out: IC50 for decrease of LTC4 levels): 0.34 ± 0.018 µM
IC50 [5]: 5 µM
Concentrations reported to reduce leukotriene production (leukotriene production): 50 to 200 µM

Cc1cc(O)c2c(c1)C(=O)C(c1c(C)cc3c(c1O)C(=O)C=CC3=O)=CC2=O [Diospyrin, diospyrin]
inhibition at 1 µM (RBL-2H3 cells [1]; [9]): < 15%
inhibition at 10 µM (RBL-2H3 cells [2]; [10]): 56.8 ± 14.6%
Effect on A23187 (calcium ionophore)-induced degranulation (in words) (RBL-2H3 cells [2]): reduced degranulation
Decrease of histamine release (RBL-2H3 cells [6]): 51.4±12.8%
Hyaluronidase inhibition (%) ([3]; 20 µM): < 15 (20 µM) %
inhibition at 36.7 µM (soybean lipoxidase; 36.7 µM, maximal inhibition): 65.6 ± 6.24%
IC50 (soybean lipoxidase): 28.9 ± 2.53 µM
Effect on leukotriene (LT) C4 levels evoked by IgE/antigen (in words) ([4]; 1 µM): unaffected; also recorded: unable to reduce leukotrien C4

O=C(O)c1cc(=O)c2c(OCC(O)COc3cccc4oc(C(=O)O)cc(=O)c34)cccc2o1 [sodium cromoglycate, Sodium cromoglycate, reference compound]
Concentration required for complete hyaluronidase inhibition ([3]; positive control): 10 mM

O=c1c(O)c(-c2ccc(O)c(O)c2)oc2cc(O)cc(O)c12 [Quercetin, reference compound]
Concentration required to reduce β-hexosaminidase release (RBL-2H3 cells [2]; A23187 assay, 10-fold higher than in IgE/antigen assay): 100 µM

O=C1C=CC(=O)c2c(O)ccc(O)c21 [Naphthazarin, naphthazarin]
inhibition at 0.1 µM (RBL-2H3 cells [1]; Rattus norvegicus, RBL-2H3, 0.1 µM, maximal inhibition, mean±SEM, read-out: Degranulation inhibition (%) IgE/antigen (decrease of β-hexosaminidase release)): 30.8 ± 3.82%
Effect on IgE/antigen-induced degranulation (in words) (RBL-2H3 cells [1]): decreased IgE/antigen-induced degranulation
inhibition at 0.1 µM (RBL-2H3 cells [2]; Rattus norvegicus, RBL-2H3, 0.1 µM, maximal inhibition, mean±SEM, read-out: Degranulation inhibition (%) A23187 (decrease of β-hexosaminidase release)): < 15%
Effect on A23187 (calcium ionophore)-induced degranulation (in words) (RBL-2H3 cells [2]): failed to reduce ionophore-induced degranulation
Hyaluronidase inhibition (%) ([3]; 100 µM): 16.9±2.45 (100 µM) %
inhibition at 183.5 µM (soybean lipoxidase; maximal inhibition): 54.4 ± 9.33%
IC50 (soybean lipoxidase): 142 ± 27.1 µM

CC1=CC(=O)c2c(O)cccc2C1=O [Plumbagin, plumbagin]
inhibition at 1 µM (RBL-2H3 cells [1]; [9]): < 15%
Effect on IgE/antigen-induced degranulation (in words) (RBL-2H3 cells [1]): did not prevent degranulation
inhibition at 1 µM (RBL-2H3 cells [2]; [10]): < 15%
Effect on A23187 (calcium ionophore)-induced degranulation (in words) (RBL-2H3 cells [2]): did not prevent degranulation
Hyaluronidase inhibition (%) ([3]; 100 µM): < 15 (100 µM) %
inhibition at 183.5 µM (soybean lipoxidase; maximal inhibition): 49.8 ± 5.23%
IC50 (soybean lipoxidase): > 184 µM
Maximum non-toxic concentration (RBL-2H3 cells [7]): 1 µM
Effect on cytokines production (in words) [8]: inhibited cytokines production
